According to PubChem BioAssay AID1199 (EPA DSSTox, 2008):
Calls of active or inactive are those of the source.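 How the source made its calls: active means a tumour-causing dose and a tumour site recorded for mice in at least one sex group; inconclusive means only government mouse studies exist and were judged inadequate; inactive means mouse studies exist but none gave tumours.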

Test system: mouse carcinogenicity bioassay, TD50 from CPDB
Assay: DSSTox (CPDBAS) Carcinogenic Potency Database Summary Mouse Bioassay Results
Details: TD50_Mouse_Note: no positive results; TargetSites_Mouse_Female: no positive results
Outline: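 Values are TD50 carcinogenic potencies from mouse chronic bioassays, taking the most positive result for each sex-species. Sources are published literature and NCI/NTP studies; target sites reflect author-reported positive findings.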

Question: How did the outcome turn out when `C=Cc1ccc(C)cc1` was run?
Answer: inactive; no positive results

Question: With `NS(=O)(=O)c1cc2c(cc1Cl)NCNS2(=O)=O` as the molecule, how does the outcome read?
Answer: inactive; no positive results

Question: How did the outcome turn out when `Oc1c(Cl)cc(Cl)c(Cl)c1Cc1c(O)c(Cl)cc(Cl)c1Cl` was run?
Answer: inactive; no positive results

Question: How did the outcome turn out when `O=S1OCCO1` was run?
Answer: inactive

Question: `CC(=O)Nc1ccc(C(=O)CCl)cc1` was tested. Which outcome did it give?
Answer: inactive; no positive results

Question: Which outcome does the source give for `CN(Cc1cnc2nc(N)nc(N)c2n1)c1ccc(C(=O)N[C@@H](CCC(=O)O)C(=O)O)cc1` here?
Answer: inactive; no positive results

Question: How did the outcome turn out when `CNC(=O)CSP(=S)(OC)OC` was run?
Answer: inactive; no positive results

Question: `C[C@H](CCC(=O)O)[C@H]1CC[C@H]2[C@@H]3CC[C@@H]4C[C@H](O)CC[C@]4(C)[C@H]3CC[C@]12C` was tested. Which outcome did it give?
Answer: inactive; no positive results

Question: How did the outcome turn out when `O=C(O)c1ccccc1` was run?
Answer: inactive; no positive results

Question: Which outcome does the source give for `CCc1cccc2c3c([nH]c12)C(CC)(CC(=O)O)OCC3` (stereo not drawn) here?
Answer: inactive; no positive results

Question: For `Clc1ccc(C(c2ccccc2Cl)C(Cl)Cl)cc1` (stereo not drawn), which outcome is on record?
Answer: inactive; no positive results

Question: `Nc1ccc(O)c([N+](=O)[O-])c1` was tested. Which outcome did it give?
Answer: inactive; no positive results

Question: How did the outcome turn out when `Nc1ccc(N)cc1` was run?
Answer: inactive; no positive results

Question: For `c1ccc2[nH]ccc2c1`, which outcome is on record?
Answer: inactive

Question: With `CCn1cc(C(=O)O)c(=O)c2cc3c(cc21)OCO3` as the molecule, how does the outcome read?
Answer: inactive; no positive results

Question: How did the outcome turn out when `C=Cc1cccc(C)c1` was run?
Answer: inactive; no positive results

Question: `ClCc1ccccn1` was tested. Which outcome did it give?
Answer: inactive; no positive results

Question: Which outcome does the source give for `Clc1ccccc1` here?
Answer: inactive; no positive results

Question: How did the outcome turn out when `O=C/C(Cl)=C(/Cl)C(=O)O` was run?
Answer: inactive; no positive results

Question: Which outcome does the source give for `O=S1(=O)CC=CC1` here?
Answer: inactive; no positive results

Question: For `O=C(O)CC[N+](=O)[O-]`, which outcome is on record?
Answer: inactive; no positive results

Question: Which outcome does the source give for `Nc1cc(Cl)c(-c2cc(Cl)c(N)cc2Cl)cc1Cl` here?
Answer: inactive

Question: `c1ccc2[nH]c(-c3cscn3)nc2c1` was tested. Which outcome did it give?
Answer: inactive; no positive results

Question: `OCC(CO)N[C@H]1C[C@](O)(CO)[C@@H](O)[C@H](O)[C@H]1O` was tested. Which outcome did it give?
Answer: inactive; no positive results

Question: How did the outcome turn out when `CC(Oc1cc(Cl)ccc1Cl)C(=O)O` (stereo not drawn) was run?
Answer: inactive; no positive results

Question: For `COc1cc(/C=C/C(=O)CC(=O)/C=C/c2ccc(O)c(OC)c2)ccc1O`, which outcome is on record?
Answer: inactive; no positive results

Question: For `CN(C)C(=S)S[Se](SC(=S)N(C)C)(SC(=S)N(C)C)SC(=S)N(C)C`, which outcome is on record?
Answer: inactive; no positive results

Question: `CNc1ncnc2c1ncn2[C@@H]1O[C@H](CO)[C@@H](O)[C@H]1O` was tested. Which outcome did it give?
Answer: inactive; no positive results

Question: With `COc1ccc2c3c1O[C@H]1[C@@H](O)C=C[C@H]4[C@@H](C2)N(C)CC[C@@]341` as the molecule, how does the outcome read?
Answer: inactive; no positive results

Question: Which outcome does the source give for `Clc1ccc2c(c1)Oc1ccc(Cl)cc1O2` here?
Answer: inactive; no positive results

Same assay, conditions: TD50_Mouse_Note: only experiment is NCI/NTP bioassay inadequate; TargetSites_Mouse_Female: NTP bioassay inadequate

Question: With `Nc1nc(=S)c2ncn([C@H]3C[C@H](O)[C@@H](CO)O3)c2[nH]1` as the molecule, how does the outcome read?
Answer: ntp bioassay inadequate

Same assay, conditions: TD50_Mouse_Note: positive test results only by intraperitoneal or intravenous injection; TD50 is harmonic mean of more than one positive; TargetSites_Mouse_Female: lung

Question: With `N[C@@H](Cc1ccc(N(CCCl)CCCl)cc1)C(=O)O` as the molecule, how does the Potency read?
Answer: 0.000491 mmol/kg/day

Same assay, conditions: TargetSites_Mouse_Female: harderian gland; pituitary gland

Question: `CC(I)C1OCC(CO)O1` (stereo not drawn) was tested. Which Potency did it give?
Answer: 0.535 mmol/kg/day

Same assay, conditions: TargetSites_Mouse_Female: liver

Question: Which Potency does the source give for `CCCN(CCC)S(=O)(=O)c1ccc(C(=O)O)cc1` here?
Answer: 1.89 mmol/kg/day

Question: How did the Potency turn out when `COC(C)(C)C` was run?
Answer: 74.3 mmol/kg/day

Question: For `C=CC(O)c1ccc(OC)cc1` (stereo not drawn), which Potency is on record?
Answer: 0.352 mmol/kg/day

Same assay, conditions: TargetSites_Mouse_Female: liver; ovary

Question: How did the Potency turn out when `O=[N+]([O-])c1ccc2c3c(cccc13)CC2` was run?
Answer: 0.23 mmol/kg/day

Same assay, conditions: TargetSites_Mouse_Female: liver; vascular system

Question: How did the Potency turn out when `Cc1ccc(N=C=O)cc1N=C=O` was run?
Answer: 1.44 mmol/kg/day

Same assay, conditions: TargetSites_Mouse_Female: lung

Question: Which Potency does the source give for `c1ccc2ccccc2c1` here?
Answer: 1.27 mmol/kg/day

Question: For `NNCc1ccccc1`, which Potency is on record?
Answer: 0.437 mmol/kg/day

Same assay, conditions: TargetSites_Mouse_Female: lung; vascular system

Question: With `NNCCc1ccccc1` as the molecule, how does the Potency read?
Answer: 0.0623 mmol/kg/day

Same assay, conditions: TargetSites_Mouse_Female: no positive results

Question: `CCOc1ccccc1C(N)=O` was tested. Which Potency did it give?
Answer: 3.11 mmol/kg/day

Question: Which Potency does the source give for `[O-][Br+2]([O-])O` here?
Answer: 0.322 mmol/kg/day

Question: How did the Potency turn out when `Cc1ccc(NC(N)=O)cc1` was run?
Answer: 1.37 mmol/kg/day

Question: With `CC(=O)OC[C@]12C[C@H](OC(=O)CC(C)C)C(C)=C[C@H]1O[C@@H]1[C@H](O)[C@@H](OC(C)=O)[C@@]2(C)C12CO2` (stereo partly drawn) as the molecule, how does the Potency read?
Answer: 0.00189 mmol/kg/day

Question: How did the Potency turn out when `Cc1cc(-c2ccc(N)c(C)c2)ccc1N` was run?
Answer: 0.1 mmol/kg/day

Question: For `CCCCCC(N)=O`, which Potency is on record?
Answer: 16.9 mmol/kg/day

Question: How did the Potency turn out when `O=[N+]([O-])c1c(Cl)c(Cl)c(Cl)c(Cl)c1Cl` was run?
Answer: 0.241 mmol/kg/day

Question: How did the Potency turn out when `CCOc1ccc(NC(C)=O)cc1N` was run?
Answer: 10.7 mmol/kg/day

Same assay, conditions: TargetSites_Mouse_Female: stomach

Question: Which Potency does the source give for `CC(Cl)C=O` (stereo not drawn) here?
Answer: 0.139 mmol/kg/day

Question: For `NNc1nc(-c2ccc([N+](=O)[O-])o2)cs1`, which Potency is on record?
Answer: 0.0725 mmol/kg/day

Same assay, conditions: TargetSites_Mouse_Female: uterus

Question: With `CCCl` as the molecule, how does the Potency read?
Answer: 28.1 mmol/kg/day

Question: With `CCBr` as the molecule, how does the Potency read?
Answer: 4.91 mmol/kg/day
